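How tested: cells in 96-well plates exposed to compound for 48 hours at five concentrations. TGI marks complete inhibition of growth.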

Results on nine compounds are retold here after PubChem BioAssay (NCI).

Test systems include M19-MEL melanoma; HCT-116 colon; M14 melanoma; K-562 leukemia; SW-620 colon; HT29 colon; OVCAR-5 ovarian; MALME-3M melanoma; RPMI-8226 leukemia; ACHN renal; OVCAR-8 ovarian; HL-60(TB) leukemia; CAKI-1 renal; NCI/ADR-RES ovarian; SR leukemia; PC-3 prostate; MDA-MB-435; HS 578T breast; BT-549 breast; MDA-MB-231 breast.
Common to all, as to experiment: DTP human tumour cell line panel, 48 h

One may read the TGI as the concentration giving total growth inhibition. High values mean lower sensitivity of the cells, low ones greater sensitivity of the cells. As to `COc1ccc2nc(NC(=O)C(=O)C(C(=O)c3ccccc3-c3ccccc3)C3OC(=O)c4ccccc43)sc2c1` (configuration not stated), the TGI is 31 µM in the assay on M19-MEL melanoma; 27.6 µM in the assay with HCT-116 colon; 41.5 µM in the assay with M14 melanoma; greater than 100 µM in the assay with K-562 leukemia; 50.1 µM in the assay with SW-620 colon; greater than 100 µM in the assay on HT29 colon. Also, the TGI is 35.9 µM with OVCAR-5 ovarian; 27.6 µM in the assay on MALME-3M melanoma; 51.9 µM with RPMI-8226 leukemia; 73.9 µM in the assay on ACHN renal; 59.3 µM in the assay on OVCAR-8 ovarian; 72.5 µM with HL-60(TB) leukemia.

For the compound `CC(=O)OCC1OC(n2c(=O)n(-c3ccccc3)c(=O)c3cc(Br)cc(Br)c32)C(OC(C)=O)C(OC(C)=O)C1OC(C)=O` (configuration not stated), the TGI with M19-MEL melanoma, in the assay with HCT-116 colon, with M14 melanoma, in the assay with K-562 leukemia, in the assay on SW-620 colon and with HT29 colon was greater than 100 µM each time. Also, the TGI in the assay with OVCAR-5 ovarian, in the assay with MALME-3M melanoma, in the assay on RPMI-8226 leukemia, with ACHN renal, with OVCAR-8 ovarian and with CAKI-1 renal was greater than 100 µM throughout. This compound also showed a TGI with HL-60(TB) leukemia greater than 100 µM.

As to `O=C(CC(=O)Nc1ccccc1O)Nc1ccccc1O`, the TGI is 28.4 µM in the assay on M19-MEL melanoma; 27.5 µM in the assay with HCT-116 colon; 29.7 µM in the assay on M14 melanoma; 25.7 µM with K-562 leukemia; 17.1 µM with SW-620 colon; greater than 100 µM in the assay with HT29 colon. For the same compound, the TGI was greater than 100 µM with OVCAR-5 ovarian; 37.7 µM with MALME-3M melanoma; 44.2 µM in the assay with RPMI-8226 leukemia; 22.4 µM in the assay with ACHN renal; greater than 100 µM in the assay with OVCAR-8 ovarian; greater than 100 µM with CAKI-1 renal. This compound came in with a TGI in the assay with HL-60(TB) leukemia of 6.01 µM.

Consider `CC1=C(C(=O)CC(=O)C(=O)Nc2ccccc2)Sc2ccccc2N1`, for which the TGI in the assay with M19-MEL melanoma, with HCT-116 colon, in the assay with M14 melanoma, with K-562 leukemia, in the assay on SW-620 colon and in the assay on HT29 colon was greater than 100 µM in each case. For the same compound, the TGI in the assay on OVCAR-5 ovarian, in the assay on MALME-3M melanoma, in the assay on RPMI-8226 leukemia, with ACHN renal, with OVCAR-8 ovarian and in the assay with HL-60(TB) leukemia was greater than 100 µM in each case.

Regarding `CCOC(=O)[C@H]1Nc2ccc(Cl)cc2[C@H]2OCC[C@@H]12`, the TGI in the assay with M19-MEL melanoma, in the assay on HCT-116 colon, with M14 melanoma, in the assay with K-562 leukemia, with SW-620 colon and in the assay on HT29 colon was greater than 100 µM in each case. Besides, the TGI with OVCAR-5 ovarian, in the assay on MALME-3M melanoma, in the assay with ACHN renal, with OVCAR-8 ovarian, in the assay on CAKI-1 renal and in the assay with HL-60(TB) leukemia was greater than 100 µM each time.

Consider `COC(=O)n1c(=O)n(-c2ccccc2)c(=O)n1C(=O)Nc1ccccc1`, for which the TGI with HCT-116 colon, in the assay on NCI/ADR-RES ovarian, in the assay with M14 melanoma, in the assay with K-562 leukemia, with SW-620 colon and in the assay on HT29 colon was greater than 100 µM in each case. For the same compound, the TGI with SR leukemia, in the assay on PC-3 prostate, in the assay on OVCAR-5 ovarian, in the assay on MDA-MB-435, in the assay with MALME-3M melanoma and in the assay with RPMI-8226 leukemia was greater than 100 µM throughout. Also, the TGI in the assay with HS 578T breast, in the assay on ACHN renal, in the assay with BT-549 breast, with OVCAR-8 ovarian, in the assay with MDA-MB-231 breast and with CAKI-1 renal was greater than 100 µM each time. Moreover, in the assay on HL-60(TB) leukemia, the TGI was greater than 100 µM.

`S=C(N/N=C(/c1ccccc1)c1ccccn1)Nc1ccc(Cl)cc1`: the TGI in the assay with HCT-116 colon is 4.47 µM; with NCI/ADR-RES ovarian, 14.3 µM; in the assay with M14 melanoma it was 2.81 µM; in the assay with K-562 leukemia it was 0.581 µM; with SW-620 colon it was 11.1 µM; in the assay with HT29 colon it was greater than 44.3 µM. Also, the TGI is 6.75 µM with SR leukemia; 10.3 µM in the assay with PC-3 prostate; 6.2 µM with OVCAR-5 ovarian; 10.2 µM with MDA-MB-435; 10.6 µM in the assay with MALME-3M melanoma; greater than 25.9 µM in the assay on RPMI-8226 leukemia. The TGI with HS 578T breast is greater than 78.2 µM; with ACHN renal, 9.01 µM; in the assay on BT-549 breast it was 9.94 µM; with OVCAR-8 ovarian, 3.19 µM; in the assay on MDA-MB-231 breast, 8.27 µM; with CAKI-1 renal, 9.37 µM. This compound yielded a TGI in the assay with HL-60(TB) leukemia of 0.543 µM.

Take `COc1ccc2oc(=O)c(CC=C(C)C)c(O)c2c1C`: the TGI with HCT-116 colon, in the assay with NCI/ADR-RES ovarian, in the assay on M14 melanoma, in the assay on K-562 leukemia, in the assay with SW-620 colon and in the assay with HT29 colon was greater than 100 µM in each case. In addition, the TGI in the assay with SR leukemia, with PC-3 prostate, in the assay with OVCAR-5 ovarian, in the assay on MDA-MB-435, in the assay on MALME-3M melanoma and with RPMI-8226 leukemia was greater than 100 µM in each case. Also, the TGI in the assay with HS 578T breast, in the assay with ACHN renal, in the assay on BT-549 breast, in the assay with OVCAR-8 ovarian, with MDA-MB-231 breast and in the assay with CAKI-1 renal was greater than 100 µM throughout. For the same compound, the TGI in the assay with HL-60(TB) leukemia was greater than 100 µM.

For `COc1cc(/C=C/c2ccc(OC(C)=O)cc2)cc(OC)c1OC`, the TGI in the assay on M19-MEL melanoma, in the assay with HCT-116 colon, with M14 melanoma, with K-562 leukemia, in the assay on SW-620 colon and in the assay with HT29 colon was greater than 100 µM in each case. In addition, the TGI in the assay on OVCAR-5 ovarian is 68.6 µM; in the assay on MALME-3M melanoma, 97.1 µM; in the assay on RPMI-8226 leukemia, 68.6 µM; in the assay on ACHN renal it was 78.6 µM; with OVCAR-8 ovarian, greater than 100 µM; with CAKI-1 renal, greater than 100 µM. The compound also showed a TGI with HL-60(TB) leukemia of 52.6 µM.
